Results: paper PMC7044277 (Nature Communications, 2020)
Where “and” joins values, the source holds several entries; their conditions need not be identical. Equal values may be shown once. Read-outs that look alike come from different tables or passages of the source.

Assays:
[1] = biological target: T1, DRD4 (D4.4 variant) (Homo sapiens, UniProt P21917); assay: Gαi/o-mediated cAMP inhibition (GloSensor); assay type: cell-based; settings: DRD4; agonist, cAMP inhibition; read-out: EC50 ± SEM
T1 sequence (P21917 1-419): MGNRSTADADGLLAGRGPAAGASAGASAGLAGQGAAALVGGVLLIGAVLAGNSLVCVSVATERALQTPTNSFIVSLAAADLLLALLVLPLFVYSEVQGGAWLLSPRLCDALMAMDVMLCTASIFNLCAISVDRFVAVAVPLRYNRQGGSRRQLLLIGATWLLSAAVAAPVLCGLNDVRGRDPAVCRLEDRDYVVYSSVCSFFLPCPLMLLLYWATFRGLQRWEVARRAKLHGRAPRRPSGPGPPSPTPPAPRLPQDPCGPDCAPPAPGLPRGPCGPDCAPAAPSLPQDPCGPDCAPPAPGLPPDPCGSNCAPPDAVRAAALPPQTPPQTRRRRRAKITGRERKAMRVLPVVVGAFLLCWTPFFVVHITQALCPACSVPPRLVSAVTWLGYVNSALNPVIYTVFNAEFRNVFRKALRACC

[2] = biological target: T2, DRD2 F1103.28A (Homo sapiens, UniProt P14416, F110A); assay: Gαi/o-mediated cAMP inhibition (GloSensor), mutant; assay type: cell-based; design: expressed in transfected cells; host or cells: HEK293T (ATCC CRL-11268)
T2 sequence (P14416 whole entry F110A): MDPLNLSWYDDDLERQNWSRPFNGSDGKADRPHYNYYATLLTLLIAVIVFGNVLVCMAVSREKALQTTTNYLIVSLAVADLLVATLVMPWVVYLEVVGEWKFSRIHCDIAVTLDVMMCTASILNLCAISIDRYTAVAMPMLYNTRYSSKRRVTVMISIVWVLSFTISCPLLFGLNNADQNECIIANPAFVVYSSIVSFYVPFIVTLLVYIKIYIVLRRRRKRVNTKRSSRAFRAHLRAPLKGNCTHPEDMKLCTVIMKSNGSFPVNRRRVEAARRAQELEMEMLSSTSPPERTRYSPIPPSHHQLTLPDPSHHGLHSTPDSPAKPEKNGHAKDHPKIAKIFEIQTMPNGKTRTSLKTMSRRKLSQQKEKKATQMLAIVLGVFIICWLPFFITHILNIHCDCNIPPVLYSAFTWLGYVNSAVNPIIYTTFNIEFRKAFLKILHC

[3] = biological target: T2, DRD2 F1103.28A; assay type: binding; design: expressed in transfected cells; host or cells: HEK293T (ATCC CRL-11268)
[4] = biological target: T3, DRD3 (Homo sapiens, UniProt P35462); assay: β-arrestin2 recruitment (Tango); assay type: cell-based; settings: DRD3, Tango
T3 sequence (P35462 whole entry): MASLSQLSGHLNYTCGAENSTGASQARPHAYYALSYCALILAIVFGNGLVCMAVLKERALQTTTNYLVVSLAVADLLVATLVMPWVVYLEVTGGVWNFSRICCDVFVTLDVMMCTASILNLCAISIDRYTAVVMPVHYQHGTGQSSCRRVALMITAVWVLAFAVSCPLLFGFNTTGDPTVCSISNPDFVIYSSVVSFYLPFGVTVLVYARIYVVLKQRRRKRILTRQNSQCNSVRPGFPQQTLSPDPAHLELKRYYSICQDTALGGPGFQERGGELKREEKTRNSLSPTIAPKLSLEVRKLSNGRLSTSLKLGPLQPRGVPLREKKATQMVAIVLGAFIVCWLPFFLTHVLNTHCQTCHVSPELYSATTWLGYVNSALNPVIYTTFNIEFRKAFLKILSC

[5] = test system: 320 non-olfactory GPCRs; assay type: cell-based; settings: replicate values, Fig_4g;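 note: fold over basal response of each receptor without drug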
[6] = biological target: T3, DRD3; assay: Gαi/o-mediated cAMP inhibition (GloSensor); assay type: cell-based; settings: DRD3, cAMP inhibition
[7] = biological target: T4, DRD2 F1103.28L (Homo sapiens, UniProt P14416, F110L); assay: Gαi/o-mediated cAMP inhibition (GloSensor), mutant; assay type: cell-based
T4 construct: expressed in transfected cells; host or cells: HEK293T (ATCC CRL-11268)
T4 sequence (P14416 whole entry F110L): as the sequence (P14416 whole entry F110A) above, with A110L counted along it

[8] = biological target: T2, DRD2 F1103.28A; assay: β-arrestin2 recruitment (Tango), mutant; assay type: cell-based; design: expressed in transfected cells; host or cells: HEK293T (ATCC CRL-11268)
[9] = biological target: DRD2 (D2 long receptor) (Homo sapiens, UniProt P14416); assay: Gαi/o-mediated cAMP inhibition (GloSensor split-luciferase cAMP reporter), HEK293T; assay type: cell-based; settings: for response, Fig_S11d dose-response source data: replicate values; for Response, Fig_S11b dose-response: individual replicates;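 for all read-outs here: compounds applied 15 min at room temperature, then luciferin plus 400 nM isoproterenol to raise cAMP through endogenous β2-adrenergic receptors, luminescence read 15 min later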
Chain of DRD2 (D2 long receptor) (P14416 whole entry): as the sequence (P14416 whole entry F110A) above, with A110F counted along it

[10] = read-out: Emax relative to quinpirole response

With `CCOc1cccc2cc(C(C)NCC3(O)CCCCC3)oc12` (stereo not shown) [O4LE6] as the molecule, how does the EC50 [1] read?
The EC50 was greater than 10000 nM.

What about the EC50 [2] of the same molecule?
Its EC50 is greater than 10000 nM.

What about the Ki ([3]; DRD2 F1103.28A, read-out: Ki) of the same molecule?
The Ki was 720 nM.

And the “affinity increase (binding enhanced), mutant vs wild type” value ([3]; DRD2 Phe110^3.28Ala vs wild-type DRD2)?
Its value is 2.64 fold.

And the EC50 ([4]; read-out: EC50 ± SEM)?
Its EC50 is 708.5 ± 6.3 nM.

What about the Emax [4, 10] of the same molecule?
The Emax was 15.8%.

What about the “GPCRome agonism screen response” value ([5]; receptor LTB4R2B) of the same molecule?
Its value is 0.6938 and 0.9232 and 0.5075.

And the “GPCRome agonism screen response” value ([5]; receptor NPS)?
Its value is 0.4686 and 1.378 and 0.7119 and 0.6607.

What about the “GPCRome agonism screen response” value ([5]; receptor PK1) of the same molecule?
Its value is 0.8997 and 0.9125 and 0.8846 and 0.857.

And the “GPCRome agonism screen response” value ([5]; receptor PRRP)?
Its value is 0.431 and 1.1359 and 1.866 and 0.5549.

And the “GPCRome agonism screen response” value ([5]; receptor QRFP)?
The value was 0.8017 and 1.022 and 0.9768 and 1.

And the “GPCRome agonism screen response” value ([5]; receptor SSSTR)?
Its value is 0.8501 and 0.9752 and 2.465 and 0.6314.

And the EC50 ([6]; agonist, read-out: EC50 ± SEM)?
Its EC50 is 5.09 ± 0.16 nM.

What about the Emax [6, 10] of the same molecule?
Its Emax is 62.4%.

What about the EC50 ([7]; DRD2 F1103.28L (b138 head prints DRD2 F1063.28L)) of the same molecule?
Its EC50 is 11.3 ± 2.27 nM.

What about the Emax ([7]; read-out: Emax relative to quinpirole response, DRD2 F1103.28L) of the same molecule?
The Emax was 61%.

What about the EC50 [8] of the same molecule?
The EC50 was greater than 10000 nM.

What about the EC50 ([9]; DRD2, agonist, Gαi/o-mediated cAMP inhibition, read-out: EC50 ± SEM) of the same molecule?
The EC50 was 0.57 nM.

What about the “response, Fig_S11d dose-response source data” value ([9]; Log[Drug] -6.52) of the same molecule?
The value was 93.5634.

And the “response, Fig_S11d dose-response source data” value ([9]; Log[Drug] -7)?
Its value is 91.3799 and 89.9656 and 96.7642 and 92.7028 and 90.0117 and 92.9852 and 92.6706 and 90.0792 and 94.9443.

And the “response, Fig_S11d dose-response source data” value ([9]; Log[Drug] -7.52)?
The value was 89.3701 and 83.9361 and 92.3724 and 89.5789 and 91.7807 and 86.0032 and 96.0478 and 86.7857 and 84.4618.

What about the “response, Fig_S11d dose-response source data” value ([9]; Log[Drug] -8) of the same molecule?
Its value is 70.6367 and 72.3736 and 84.6805 and 78.0803 and 77.3651 and 77.1016 and 86.6519 and 79.5632 and 77.7576.

What about the “response, Fig_S11d dose-response source data” value ([9]; Log[Drug] -8.52) of the same molecule?
Its value is 93.2656 and 95.6724 and 92.9431 and 77.1769 and 79.2659 and 71.4182 and 77.4232 and 75.6176 and 79.697.

And the “response, Fig_S11d dose-response source data” value ([9]; Log[Drug] -9)?
The value was 51.5311 and 33.9143 and 52.5981 and 65.5842 and 66.7322 and 55.2712 and 58.2302 and 71.02 and 60.3368.

What about the “response, Fig_S11d dose-response source data” value ([9]; Log[Drug] -9.52) of the same molecule?
The value was 27.2398 and 43.5167 and 44.7822 and 40.3099 and 41.1379 and 42.7564 and 40.5085 and 50.7403 and 30.2265.

And the “response, Fig_S11d dose-response source data” value ([9]; Log[Drug] -10)?
Its value is 9.9455 and 25.9991 and 17.2652 and 20.7754 and 27.795 and 3.65 and 25.4283 and 30.0426 and 37.3152.

And the “response, Fig_S11d dose-response source data” value ([9]; Log[Drug] -10.52)?
The value was 8.06 and 24.1134 and 23.7164 and -2.2029 and 14.9603 and -7.6605 and -4.2473 and 22.3855 and 15.9154.

And the “response, Fig_S11d dose-response source data” value ([9]; Log[Drug] -11)?
Its value is 4.9334 and 7.216 and -1.766 and -6.3996 and -4.3107 and -5.3646 and 21.048 and 18.6238 and 5.767.

What about the “response, Fig_S11d dose-response source data” value ([9]; Log[Drug] -11.52) of the same molecule?
The value was 10.5658 and 8.68 and -1.4434 and 5.588 and 4.9296 and 13.8311 and 19.0585 and 28.0698 and 34.2223.

What about the “response, Fig_S11d dose-response source data” value ([9]; Log[Drug] -12) of the same molecule?
Its value is -7.7209 and 3.569 and -11.1202 and -5.7974 and -18.3122 and 14.3957 and 12.4212 and 21.7836 and -1.1209.

What about the Emax ([9]; HEK-293T, read-out: Emax relative to quinpirole response, DRD2, cAMP inhibition) of the same molecule?
The Emax was 94.8%.

And the “Response, Fig_S11b dose-response” value ([9]; Log[Drug] -5)?
Its value is 94.6799 and 95.4987 and 95.201 and 94.3966 and 96.6361 and 95.6198 and 95.7635 and 88.9256 and 95.1617.

What about the “Response, Fig_S11b dose-response” value ([9]; Log[Drug] -5.52) of the same molecule?
Its value is 94.4814 and 96.3424 and 99.171 and 96.9372 and 94.2837 and 95.6198 and 98.4051 and 98.5221 and 95.5796.

And the “Response, Fig_S11b dose-response” value ([9]; Log[Drug] -6)?
Its value is 96.5905 and 98.1785 and 100.163 and 88.2615 and 91.4043 and 96.2597 and 93.8409 and 94.9611 and 95.7301.

And the “Response, Fig_S11b dose-response” value ([9]; Log[Drug] -6.52)?
Its value is 93.5634 and 99.7168 and 93.0671 and 101.473 and 96.4667 and 100.061 and 98.4218 and 97.9202 and 92.704.

What about the “Response, Fig_S11b dose-response” value ([9]; Log[Drug] -7) of the same molecule?
Its value is 91.3799 and 89.9656 and 96.7642 and 92.7028 and 90.0117 and 92.9852 and 92.6706 and 90.0792 and 94.9443.

What about the “Response, Fig_S11b dose-response” value ([9]; Log[Drug] -7.52) of the same molecule?
The value was 89.3701 and 83.9361 and 92.3724 and 89.5789 and 91.7807 and 86.0032 and 96.0478 and 86.7857 and 84.4618.

And the “Response, Fig_S11b dose-response” value ([9]; Log[Drug] -8)?
The value was 70.6367 and 72.3736 and 84.6805 and 78.0803 and 77.3651 and 77.1016 and 86.6519 and 79.5632 and 77.7576.

What about the “Response, Fig_S11b dose-response” value ([9]; Log[Drug] -8.52) of the same molecule?
Its value is 93.2656 and 95.6724 and 92.9431 and 77.1769 and 79.2659 and 71.4182 and 77.4232 and 75.6176 and 79.697.

What about the “Response, Fig_S11b dose-response” value ([9]; Log[Drug] -9) of the same molecule?
The value was 51.5311 and 33.9143 and 52.5981 and 65.5842 and 66.7322 and 55.2712 and 58.2302 and 71.02 and 60.3368.

And the “Response, Fig_S11b dose-response” value ([9]; Log[Drug] -11)?
The value was 4.9334.

And the “Response, Fig_S11b dose-response” value ([9]; Log[Drug] -11.52)?
The value was 10.5658 and 8.68 and -1.4434 and 5.588 and 4.9296 and 13.8311 and 19.0585 and 28.0698 and 34.2223.

What about the “Response, Fig_S11b dose-response” value ([9]; Log[Drug] -12) of the same molecule?
The value was -7.7209 and 3.569 and -11.1202 and -5.7974 and -18.3122 and 14.3957 and 12.4212 and 21.7836 and -1.1209.
